Experiment [1] concerns the target T1, PI3Kα (Homo sapiens, UniProt P42336).
T1 construct: Full length p110 subunits of PI3K α, β and δ, N-terminally labeled with polyHis tag; polyHis (N); made in house; host or cells: Sf9 insect cells (baculovirus)
The experiment in a line: In vitro PI3K AlphaScreen assay, PI3Kα. The format is biochemical. The note with it: PI(4,5)P2 substrate, 20 minutes at room temperature, read-out: P13Kalpha IC50 um. As to the method: The PI3K AlphaScreen® assay (PerkinElmer, Waltham, Mass.) measures the activity of a panel of four phosphoinositide 3-kinases: PI3Kα, PI3KIβ, PI3Kγ, and PI3Kδ. Each of these enzymes phosphorylates the 3′-hydroxyl group on phosphatidylinositiol (4,5)-bisphosphate (PIP2) to produce phosphatidylinositol (3,4,5)-trisphosphate (PIP3). This phosphorylation activity is measured using a GST-tagged PIP3 binding protein (Echelon Biosciences, Salt Lake City, Utah), an anti-GST-tagged Acceptor bead, and streptavidin-Donor bead. The interaction of biotinylated-PIP3 analog (IP4) and the PIP3 binding protein brings both Acceptor and Donor beads together producing, upon excitation of the Donor beads at 680 nm, a singlet oxygen species leading to the luminescent AlphaScreen® signal. When PIP3 is produced via phosphorylation of PIP2 by a PI3K, PIP3 competes with biotinylated-PIP3 analog (IP4) for binding to the PIP3 binding protein. In the absence of this interaction, proximity of the Donor and Acceptor beads is decreased, producing a loss of luminescent signal which is […] to PI3K activity. […] The enzyme reaction buffer is made using sterile water (Baxter, Deerfield, Ill.) and 50 mM Tris HCl pH 7, 14 mM MgCl2, 2 mM sodium cholate, and 100 mM NaCl. 2 mM DTT is added fresh the day of the experiment. The AlphaScreen® reaction buffer is made using sterile water and 10 mM Tris HCl pH 7.5, 150 mM NaCl, 0.10% Tween 20, and 30 mM EDTA. 1 mM DTT is added fresh the day of the experiment. The source plates for this assay are 384-well Greiner clear polypropylene plates containing test compounds at 5 mM and diluted 1:2 over 22 points. Columns 23 and 24 contain only DMSO as these are designated for positive and negative controls. Source plates are replicated into 384-well Optiplates (PerkinElmer, Waltham, Mass.), 0.5 μL/well, to make assay-ready plates. The different PI3K isoforms are each diluted in enzyme reaction buffer to 2× working solutions. PI3Kα is diluted to 1.6 nM, PI3Kβ is diluted to 0.8 nM, PI3Kγ is diluted to 15 nM, and PI3Kδ is diluted to 1.6 nM. Two different 2× substrate solutions are made in enzyme reaction buffer. In one solution, PI(4,5)P2 (Echelon Biosciences, Salt Lake City, Utah) is diluted to 10 μM and ATP is diluted to 20 μM. This solution is used in the assays testing PI3Kα and PI3Kβ. In a second solution, PI(4,5)P2 is diluted to 10 μM and ATP is diluted to 80 μM. This solution is used in the assays testing PI3Kγ and PI3Kδ. The AlphaScreen® reaction solutions are made using beads from the anti-GST AlphaScreen® kit (PerkinElmer, Waltham, Mass.). Two solutions are made in Alphascreen reaction buffer to 4× working concentrations. In one solution, biotinylated-IP4 (Echelon Biosciences, Salt Lake City, Utah) is diluted to 40 nM and streptavadin-Donor Beads are diluted to 80 μg/mL. In the second solution, PIP3-binding protein (Echelon Biosciences, Salt Lake City, Utah) is diluted to 40 nM and anti-GST-Acceptor Beads are diluted to 80 μg/mL. 10 μL/well of enzyme reaction buffer is added to Column 24 of the assay ready plates in place of enzyme. This is done for plates in the PI3Kα, β, and δ assays. Using a 384-well dispensing Multidrop (Titertek, Huntsville, Ala.), 10 μL/well of 2× enzyme (PI3Kα, β, δ) is added to Columns 1-23 of the appropriate assay ready plates (for PI3Kγ 10 μL is added to Columns 1-24). 10 μL/well of the appropriate substrate solution (the solution with 20 μM ATP for PI3Kα and β assays, and the solution with […] for PI3Kγ and δ assays) is then added to Columns 1-24 of the plates. Plates are then incubated at room temperature for 20 minutes. In the dark, 10 μL/well of the Donor Bead solution is added to Columns 1-24 of the plates to quench the enzyme reaction. The plates are incubated at room temperature for 30 minutes. Still in the dark, 10 μL/well of the Acceptor Bead solution is also added to Columns 1-24 of the plates. The plates are then incubated in the dark for 1.5 hours.

For experiment [2], the system named is phosphorylation of Akt at Serine 473 in U87 MG cells. The experiment in a line: pAkt AlphaScreen (U87 cell). The format is cell-based. The following applies: Homo sapiens, U-87 MG, 2 h; pAkt at Serine 473, U87 MG cells, two hours with compound. The procedure:
The pAkt AlphaScreen® assay (PerkinElmer, Waltham, Mass.) determines whether there is phosphorylation of Akt at Serine 473 by recruitment of a phosphospecific antibody. This assay was performed using U87 MG cells. The U87 growth media consists of MEM (Gibco, Carlsbad, Calif.) supplemented with 10% FBS (Gibco), 1× Non-Essential Amino Acids (Gibco,) and 1× Penicillin/Streptomycin/Glutamine (Gibco). The cells were maintained weekly using 0.05% Trypsin (Gibco) and replated in 150 mm TC— Treated Culture Dishes (Corning, Corning, N.Y.).
The first day of the assay, the adherent cells were trypsinized, media was added to the loose cells and cells were mixed to a homogenous mixture. 0.5 ml of the homogenous mixture was counted on the Beckman Coulter® Vi-Cell™ XR (Fullerton, Calif.). 50 frames of cells were counted and the number of viable cells was determined. The cells were then diluted to 0.25 million cells per ml, and centrifuged at 200 rcf for 5 minutes. The media was removed and the cells were reconstituted in fresh media for plating. The cells were plated at 20 μl per well on the PerkinElmer® FlexDrop PLUS in Low Volume 384 Well White Tissue Culture Plates (Corning) with a final cell density of 5K cells per well. The plates were incubated overnight at 37° Celsius, 5% CO2.
On the second day, the compound plates were prepared, the cells were treated with compound and the pAkt reaction mix was added to the cell lysate. 384 well compound plates were prepared containing 1 μl of compound per well starting at 5 mM and diluted 1:2 across the row, resulting in a 22 well serial dilution. 39 μl of growth media was added to the compound plate in rows 1-22 using the PerkinElmer® FlexDrop PLUS resulting in a DMSO concentration of 2.5%. The cell plates and diluted compound plates were put onto the VELOCITY11™ VPREP™ 384 ST where the compound plate was mixed and 5 μl of serially diluted compound or controls was added to the cell plate. The final concentration of the compounds was 25 μM serially diluted to 11.9 pM in 0.5% DMSO.
The cell plates were then incubated with compound for two hours at 37° C., 5% CO2. After two hours, the media in the cell plates was aspirated using the BioTek® ELx405HT plate washer (Winooski, Vt.) removing the majority of media and compound without disturbing the adherent U87 cells. The following assay reagents are components of the SureFire® Akt (Ser 473) Phosphorylation 50K Point Kit (TGR BioSciences, Adelaide, Austalia) and an IgG Detection Kit (PerkinElmer, Waltham, Mass.). 5 μl of 1× Lysis Buffer was added to each well using the PerkinElmer® FlexDrop PLUS. The plates were then incubated at room temperature on a shaker for ten minutes. The AlphaScreen® reaction was prepared under low light conditions (subdued or green light) including p-Aid (Ser 473) Reaction Buffer, Dilution Buffer, Activation Buffer, Acceptor Beads and Donor Beads at a ratio of 40:20:10:1:1 respectively. The AlphaScreen® reaction was added to the cell lysate at 6 μl per well using the PerkinElmer® FlexDrop PLUS. The plates were placed in a humid environment to reduce edge effects and incubated overnight at room temperature with restricted air flow in the dark.
On the final day of the experiment, the plates were read on the PerkinElmer® EnVision™ 2103 Multilable Reader using the standard AlphaScreen® readout. The POC is calculated and the data is analyzed to report the IC50 IP for pAkt at Serine 473.
Activity data for the compounds tested in the PI3K cell based Akt assay is provided in Table 1 under the column heading U87

The text below walks through data of patent US20120190666A1, “Heteroaryl Compounds as PIKK Inhibitors” (Amgen Inc., priority 2009, published 2012).

As a reminder, the IC50 is the midpoint of a concentration-inhibition curve.

T1 sequence (P42336 whole entry): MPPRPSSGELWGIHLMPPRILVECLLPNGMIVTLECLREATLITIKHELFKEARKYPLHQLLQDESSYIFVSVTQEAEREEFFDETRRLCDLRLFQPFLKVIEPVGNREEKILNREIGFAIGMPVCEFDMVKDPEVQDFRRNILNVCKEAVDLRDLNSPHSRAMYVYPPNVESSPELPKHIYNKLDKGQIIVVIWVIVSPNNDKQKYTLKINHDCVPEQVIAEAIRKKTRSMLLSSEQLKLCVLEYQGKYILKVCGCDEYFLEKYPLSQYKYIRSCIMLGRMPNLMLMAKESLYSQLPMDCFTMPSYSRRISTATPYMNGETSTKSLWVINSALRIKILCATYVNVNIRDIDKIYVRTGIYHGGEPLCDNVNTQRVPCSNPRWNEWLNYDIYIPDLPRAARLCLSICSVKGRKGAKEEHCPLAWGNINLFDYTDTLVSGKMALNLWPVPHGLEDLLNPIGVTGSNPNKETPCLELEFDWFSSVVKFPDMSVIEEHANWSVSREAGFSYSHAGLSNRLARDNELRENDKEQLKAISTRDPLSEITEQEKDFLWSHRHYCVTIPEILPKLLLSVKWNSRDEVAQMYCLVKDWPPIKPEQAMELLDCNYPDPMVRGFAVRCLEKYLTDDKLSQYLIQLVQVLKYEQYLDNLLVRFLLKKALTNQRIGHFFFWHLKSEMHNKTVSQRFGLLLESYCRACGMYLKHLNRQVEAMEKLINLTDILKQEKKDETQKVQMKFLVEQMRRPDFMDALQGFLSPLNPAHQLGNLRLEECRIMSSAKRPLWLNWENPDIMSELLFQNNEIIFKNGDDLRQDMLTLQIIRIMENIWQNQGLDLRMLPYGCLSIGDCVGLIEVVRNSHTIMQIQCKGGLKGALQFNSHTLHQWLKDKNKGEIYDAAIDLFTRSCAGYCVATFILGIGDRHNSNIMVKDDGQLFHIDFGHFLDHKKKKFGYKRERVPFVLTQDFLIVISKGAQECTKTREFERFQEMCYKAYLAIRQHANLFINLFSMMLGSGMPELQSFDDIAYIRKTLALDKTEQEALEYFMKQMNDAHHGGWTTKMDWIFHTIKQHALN
T1 sequence (P27986 whole entry partner): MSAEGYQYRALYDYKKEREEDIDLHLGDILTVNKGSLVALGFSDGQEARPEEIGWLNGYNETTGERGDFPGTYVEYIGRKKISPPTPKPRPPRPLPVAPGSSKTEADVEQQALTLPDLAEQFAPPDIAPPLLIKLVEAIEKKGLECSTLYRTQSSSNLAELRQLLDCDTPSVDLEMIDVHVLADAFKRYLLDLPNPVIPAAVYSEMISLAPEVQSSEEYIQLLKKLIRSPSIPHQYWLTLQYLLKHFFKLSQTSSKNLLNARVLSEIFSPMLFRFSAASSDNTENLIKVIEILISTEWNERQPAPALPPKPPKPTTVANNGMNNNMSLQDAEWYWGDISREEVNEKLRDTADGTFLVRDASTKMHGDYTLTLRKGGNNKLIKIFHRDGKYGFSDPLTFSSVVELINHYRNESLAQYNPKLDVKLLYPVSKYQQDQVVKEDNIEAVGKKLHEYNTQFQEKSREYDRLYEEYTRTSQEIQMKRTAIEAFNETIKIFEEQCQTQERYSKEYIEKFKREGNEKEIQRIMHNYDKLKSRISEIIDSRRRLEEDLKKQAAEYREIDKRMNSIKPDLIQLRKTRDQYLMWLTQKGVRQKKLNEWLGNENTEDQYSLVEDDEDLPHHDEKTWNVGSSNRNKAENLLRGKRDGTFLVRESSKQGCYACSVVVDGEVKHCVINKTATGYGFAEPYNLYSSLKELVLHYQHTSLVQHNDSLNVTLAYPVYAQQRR

In the case of `Cc1nc(NCC(F)(F)F)cc(-c2c(Nc3ccn[nH]3)nc3cccnn23)n1` [Cpd 295, 3-(2-methyl-6-((2,2,2-trifluoroethyl)amino)-4-pyrimidinyl)-N-1H-pyrazol-5-ylimidazo[1,2-b]pyridazin-2-amine], the figures for the IC50 in experiment [1] and in experiment [2] were 2980 nM and 240 nM, respectively.
In the case of `COc1ccc(Nc2nc3ccc(N4CCN(C(C)=O)CC4)cn3c2-c2nc(C)nc(N)n2)cn1` [Cpd 285, 6-(4-acetyl-1-piperazinyl)-3-(4-amino-6-methyl-1,3,5-triazin-2-yl)-N-(6-methoxy-3-pyridinyl)imidazo[1,2-a]pyridin-2-amine], the 50% inhibitory concentration (IC50) in experiment [1] came to 90 nM.
Turning to `Cc1nc(N)nc(-c2c(Nc3ccn[nH]3)nc3ccc(C(N)=O)cn23)n1` [Cpd 293, 3-(4-amino-6-methyl-1,3,5-triazin-2-yl)-2-(1H-pyrazol-5-ylamino)-imidazo[1,2-a]pyridine-6-carboxamide], the 50% inhibitory concentration (IC50) stood at 300 nM in experiment [1] and 710 nM in experiment [2].
For `Cc1nc(N)cc(-c2c(Nc3cccc(NC(=O)NC4CC4)c3)nc3cccnn23)n1` [Cpd 316, 1-(3-((3-(6-amino-2-methyl-4-pyrimidinyl)imidazo[1,2-b]pyridazin-2-yl)amino)phenyl)-3-cyclopropylurea], the IC50 in experiment [2] is 950 nM.
Turning to `Cc1nc(NC(=O)Cc2cccc(F)c2)cc(-c2c(Nc3ccn(C)n3)nc3ccccn23)n1` [Cpd 128], the 50% inhibitory concentration (IC50) was found to be 5030 nM in experiment [1] and 3160 nM in experiment [2].
Regarding `COc1ccc(Nc2nc3ccccn3c2-c2nc(C)nc(N)n2)cn1` [Cpd 4, 3-(4-amino-6-methyl-1,3,5-triazin-2-yl)-N-(6-methoxypyridin-3-yl)imidazo[1,2-a]pyridin-2-amine], the IC50 in experiment [2] is 40 nM.
For `CNc1cc(-c2c(Nc3cc[nH]n3)nc3cc(N4CCOCC4)cnn23)nc(C)n1` [Cpd 88, 3-(2-methyl-6-(methylamino)-4-pyrimidinyl)-7-(4-morpholinyl)-N-1H-pyrazol-3-ylimidazo[1,2-b]pyridazin-2-amine], the IC50 worked out at 4500 nM in experiment [1] and 1630 nM in experiment [2].
On the same counts, the results for `Cc1nc(N)cc(-c2c(Nc3ccc(N4CC(O)C4)nc3)nc3cccnn23)n1` [Cpd 272, 1-(5-((3-(6-amino-2-methyl-4-pyrimidinyl)imidazo[1,2-b]pyridazin-2-yl)amino)-2-pyridinyl)-3-azetidinol] are 320 nM and 110 nM.
For the compound `Cc1nc(N)cc(-c2c(Nc3ccn(C(=O)Nc4cc(C(F)(F)F)ccc4Cl)n3)nc3cccnn23)n1` [Cpd 246, 3-((3-(6-amino-2-methyl-4-pyrimidinyl)imidazo[1,2-b]pyridazin-2-yl)amino)-N-(2-chloro-5-(trifluoromethyl)phenyl)-1H-pyrazole-1-carboxamide], the concentration for half-maximal inhibition (IC50) in experiment [1] worked out at 15800 nM.
Turning to `Cc1nc(N)nc(-c2c(Nc3ccc4cccnc4c3)nc3ccc(N4CCN(C(=O)N(C)C)CC4)cn23)n1` [Cpd 277, 4-(3-(4-amino-6-methyl-1,3,5-triazin-2-yl)-2-(7-quinolinylamino)-imidazo[1,2-a]pyridin-6-yl)-N,N-dimethyl-1-piperazinecarboxamide], the half-maximal inhibitory concentration (IC50) worked out at 40 nM in experiment [1] and 140 nM in experiment [2].
The corresponding values for `COCCNC(=O)n1ccc(Nc2nc3cccnn3c2-c2cc(N)nc(C)n2)n1` [Cpd 264] are 33400 nM and 3150 nM.
As for `Cc1nc(N)cc(-c2c(Nc3cccc(S(C)(=O)=O)c3)nc3cccnn23)n1` [Cpd 94, 3-(6-amino-2-methyl-4-pyrimidinyl)-N-(3-(methylsulfonyl)phenyl)imidazo[1,2-b]pyridazin-2-amine], the IC50 in experiment [2] amounted to 3920 nM.
On to `Cc1nc(Nc2ccc(N3CCOCC3)nn2)cc(-c2c(Nc3ccn(C)n3)nc3cccnn23)n1` [Cpd 149, 3-(2-methyl-6-((6-(4-morpholinyl)-3-pyridazinyl)amino)-4-pyrimidinyl)-N-(1-methyl-1H-pyrazol-3-yl)imidazo[1,2-b]pyridazin-2-amine], for which the IC50 in experiment [2] was 280 nM.
Regarding `Cc1nc(N)cc(-c2c(Nc3cccc(NC(=O)Cc4ccccc4)c3)nc3ccccn23)n1` [Cpd 318, N-(3-((3-(6-amino-2-methyl-4-pyrimidinyl)imidazo[1,2-a]pyridin-2-yl)amino)phenyl)-2-phenylacetamide], the IC50 in experiment [1] came out at 12000 nM.
For the compound `COCCN1CCN(c2ccc3nc(Nc4cnc(OC)c(F)c4)c(-c4nc(C)nc(N)n4)n3c2)CC1` [Cpd 29, 3-(4-amino-6-methyl-1,3,5-triazin-2-yl)-N-(5-fluoro-6-methoxy-3-pyridinyl)-6-(4-(2-methoxyethyl)-1-piperazinyl)imidazo[1,2-a]pyridin-2-amine], the IC50 in experiment [2] is 26 nM.
